From ChEMBL document CHEMBL3046569 (Med Chem Res, 2011)

Tests used:
[1] = Therapeutic index, ratio of IC50 for human H9 cells to EC50 for HIV1; assay type: cell-based; settings: for pTI: h9; for selectivity ratio: H9 cells, read-out: Ratio IC50/EC50
[2] = test system: Human immunodeficiency virus 1; test: Antiviral activity against Human immunodeficiency virus 1 infected human H9 cells assessed as inhibition of viral replication; assay type: functional, organism-based; settings: Human immunodeficiency virus 1, H9

Structure (SMILES) | EC50 ([2]; read-out: pEC50 (converted)) [nM] | EC50 ([2]; read-out: EC50) [nM] | pTI [1] | selectivity ratio [1]
C=C(C)[C@@H]1CC[C@]2(COC(=O)CC(C)(CC)CC(=O)O)CC[C@]3(C)[C@H](CC[C@@H]4[C@@]5(C)CC[C@H](OC(=O)CC(C)(CC)CC(=O)O)C(C)(C)[C@@H]5CC[C@]43C)[C@@H]12 (stereo partly specified) | 5.3 |  | -3.541 | 
CC(C)CC(=O)O[C@H]1CC[C@]2(C)[C@H]3CC[C@@H]4[C@H]5[C@H](C(C)C)CC[C@]5(C(=O)O)CC[C@@]4(C)[C@]3(C)CC[C@H]2C1(C)C | 1500 |  | -1.748 | 
C=C(C)[C@@H]1CC[C@]2(C(=O)O)CC[C@]3(C)[C@H](CC[C@@H]4[C@@]5(C)CC[C@H](OC(=O)COCC(=O)O)C(C)(C)[C@@H]5CC[C@]43C)[C@@H]12 | 10 |  | -3.069 | 
C=C(C)[C@@H]1CC[C@]2(C(=O)O)CC[C@]3(C)[C@H](CC[C@@H]4[C@@]5(C)CC[C@H](OC(=O)C(C)(C)CC(=O)O)C(C)(C)[C@@H]5CC[C@]43C)[C@@H]12 | 2700 |  | -0.826 | 
C=C(C)[C@@H]1CC[C@]2(C(=O)O)CC[C@]3(C)[C@H](CC[C@@H]4[C@@]5(C)CC[C@H](OC(=O)CC(C)(C)CC(=O)O)C(C)(C)[C@@H]5CC[C@]43C)[C@@H]12 | 2.3 |  |  | 
CC(C)[C@@H]1CC[C@]2(C(=O)O)CC[C@]3(C)[C@H](CC[C@@H]4[C@@]5(C)CC[C@H](OC(=O)CC(C)(C)CC(=O)O)C(C)(C)[C@@H]5CC[C@]43C)[C@@H]12 | 5.7 |  | -3.007 | 
C=C(C)[C@@H]1CC[C@]2(CO)CC[C@]3(C)[C@H](CC[C@@H]4[C@@]5(C)CC[C@H](O)C(C)(C)[C@@H]5CC[C@]43C)[C@@H]12 [BETULIN] |  |  | -0.279 | 1.9
C=C(C)[C@@H]1CC[C@]2(/C=N/O)CC[C@]3(C)[C@H](CC[C@@H]4[C@@]5(C)CC/C(=N\O)C(C)(C)[C@@H]5CC[C@]43C)[C@@H]12 [BETULIN-3,28-DIOXIME] | 1070 |  | -0.708 | 
C=C(COC(=O)CC(C)(C)CC(=O)O)[C@@H]1CC[C@]2(COC(=O)CC(C)(C)CC(=O)O)CC[C@]3(C)[C@H](CC[C@@H]4[C@@]5(C)CC[C@H](OC(=O)CC(C)(C)CC(=O)O)C(C)(C)[C@@H]5CC[C@]43C)[C@@H]12 | 45 |  | -2.59 | 
C=C(C)[C@@H]1CC[C@]2(C(=O)O)CC[C@]3(C)[C@H](CC[C@@H]4[C@@]5(C)CC[C@H](O)C(C)(C)[C@@H]5CC[C@]43C)[C@@H]12 (stereo in doubt; 8) [BETULINIC ACID] | 899 |  | -1.146 | 
CC(C)[C@@H]1CC[C@]2(C(=O)O)CC[C@]3(C)[C@H](CC[C@@H]4[C@@]5(C)CC[C@H](OC(=O)CC(C)(C)C(=O)O)C(C)(C)[C@@H]5CC[C@]43C)[C@@H]12 | 0.3 |  | -4.146 | 
C=C(C)[C@@H]1CC[C@]2(COC(=O)CCC(=O)O)CC[C@]3(C)[C@H](CC[C@@H]4[C@@]5(C)CC[C@H](OC(=O)CCC(=O)O)C(C)(C)[C@@H]5CC[C@]43C)[C@@H]12 | 3800 |  | -0.969 | 
CC(C)[C@@H]1CC[C@]2(C(=O)O)CC[C@]3(C)[C@H](CC[C@@H]4[C@@]5(C)CC[C@H](OC(=O)COCC(=O)O)C(C)(C)[C@@H]5CC[C@]43C)[C@@H]12 | 5.6 |  | -3.37 | 
C=C(C)[C@@H]1CC[C@]2(CO)CC[C@]3(C)[C@H](CC[C@@H]4[C@@]5(C)CC[C@@H](O)C(C)(C)[C@@H]5CC[C@]43C)[C@@H]12 [3-EPI-BETULIN] | 3620 |  | -0.532 | 
C=C(C)[C@@H]1CC[C@]2(C(=O)OC(=O)N3CCOCC3)CC[C@]3(C)[C@H](CC[C@@H]4[C@@]5(C)CC[C@H](O)C(C)(C)[C@@H]5CC[C@]43C)[C@@H]12 | 3200 |  | -0.556 | 
CCC(C)(CC(=O)O)CC(=O)OC[C@]12CC[C@@H](C(C)C)[C@@H]1[C@H]1CC[C@@H]3[C@@]4(C)CC[C@H](OC(=O)CC(C)(CC)CC(=O)O)C(C)(C)[C@@H]4CC[C@@]3(C)[C@]1(C)CC2 (stereo partly specified) | 75 |  | -2.395 | 
CC(C)[C@@H]1CC[C@]2(COC(=O)CC3(CC(=O)O)CCCC3)CC[C@]3(C)[C@H](CC[C@@H]4[C@@]5(C)CC[C@H](OC(=O)CC6(CC(=O)O)CCCC6)C(C)(C)[C@@H]5CC[C@]43C)[C@@H]12 | 579 |  | -1.568 | 
C=C(C)[C@@H]1CC[C@]2(C(=O)O)CC[C@]3(C)[C@H](CC[C@@H]4[C@@]5(C)CC[C@H](O)C(C)(C)[C@@H]5CC[C@]43C)[C@@H]12 (stereo in doubt; 1) [BETULINIC ACID] |  |  | -0.969 | 
C=C(C)[C@@H]1CC[C@]2(COC(=O)CC(C)(C)CC(=O)O)CC[C@]3(C)[C@H](CC[C@@H]4[C@@]5(C)CC[C@H](O)C(C)(C)[C@@H]5CC[C@]43C)[C@@H]12 | 3600 |  | -0.892 | 
CC(C)[C@@H]1CC[C@]2(C(=O)OC(=O)OCN(C)C)CC[C@]3(C)[C@H](CC[C@@H]4[C@@]5(C)CCC(=O)C(C)(C)[C@@H]5CC[C@]43C)[C@@H]12 | 3800 |  | -0.544 | 
CC(C)[C@@H]1CC[C@]2(C(=O)O)CC[C@]3(C)[C@H](CC[C@@H]4[C@@]5(C)CC[C@H](OC(=O)C(C)(C)CC(=O)O)C(C)(C)[C@@H]5CC[C@]43C)[C@@H]12 | 560 |  | -1.14 | 
C=C(C)[C@@H]1CC[C@]2(C(=O)NCCCCCCCC(=O)N[C@@H](CC(C)C)[C@@H](O)CC(=O)O)CC[C@]3(C)[C@H](CC[C@@H]4[C@@]5(C)CC[C@H](O)C(C)(C)[C@@H]5CC[C@]43C)[C@@H]12 | 330 |  | -1.544 | 
C=C(CO)[C@@H]1CC[C@]2(CO)CC[C@]3(C)[C@H](CC[C@@H]4[C@@]5(C)CC[C@H](O)C(C)(C)[C@@H]5CC[C@]43C)[C@@H]12 [30-HYDROXY-BETULIN] | 50800 |  | -0.447 | 

The next lines start with results.

EC50 ([2]; read-out: pEC50 (converted)) [nM] | EC50 ([2]; read-out: EC50) [nM] | Structure (SMILES) | pTI [1] | selectivity ratio [1]
1600 |  | CC(C)[C@@H]1CC[C@]2(COC(=O)CCCC(=O)O)CC[C@]3(C)[C@H](CC[C@@H]4[C@@]5(C)CC[C@H](OC(=O)CCCC(=O)O)C(C)(C)[C@@H]5CC[C@]43C)[C@@H]12 | -1.23 | 
230 |  | CC(C)[C@@H]1CC[C@]2(C(=O)OCc3ccccc3)CC[C@]3(C)[C@H](CC[C@@H]4[C@@]5(C)CC[C@H](OC(=O)CC(C)(C)C(=O)O)C(C)(C)[C@@H]5CC[C@]43C)[C@@H]12 | -1.748 | 
1800 |  | CC(C)[C@@H]1CC[C@]2(C(=O)O)CC[C@]3(C)[C@H](CC[C@@H]4[C@@]5(C)CC[C@H](OC(=O)CCCC(=O)O)C(C)(C)[C@@H]5CC[C@]43C)[C@@H]12 | -0.875 | 
0.3 | 0.35 | C=C(C)[C@@H]1CC[C@]2(C(=O)O)CC[C@]3(C)[C@H](CC[C@@H]4[C@@]5(C)CC[C@H](OC(=O)CC(C)(C)C(=O)O)C(C)(C)[C@@H]5CC[C@]43C)[C@@H]12 [BEVIRIMAT] | -4.301 | 20000
4570 |  | C=C(C)[C@@H]1CC[C@]2(NOC(=O)CCC(C)(C)CC(=O)O)CC[C@]3(C)[C@H](CC[C@@H]4[C@@]5(C)CC/C(=N\OC(=O)CCC(C)(C)CC(=O)O)C(C)(C)[C@@H]5CC[C@]43C)[C@@H]12 | -0.532 | 
500 |  | CC(C)[C@@H]1CC[C@]2(C(=O)OCc3ccccc3)CC[C@]3(C)[C@H](CC[C@@H]4[C@@]5(C)CC[C@H](OC(=O)CCCC(=O)O)C(C)(C)[C@@H]5CC[C@]43C)[C@@H]12 | -1.279 | 
2100 |  | C=C(C)[C@@H]1CC[C@]2(COC(=O)CC3(CC(=O)O)CCCC3)CC[C@]3(C)[C@H](CC[C@@H]4[C@@]5(C)CC[C@H](O)C(C)(C)[C@@H]5CC[C@]43C)[C@@H]12 | -0.785 | 
44 |  | C=C(C)[C@@H]1CC[C@]2(C(=O)O)CC[C@]3(C)[C@H](CC[C@@H]4[C@@]5(C)CC[C@H](OC(=O)CCCC(=O)O)C(C)(C)[C@@H]5CC[C@]43C)[C@@H]12 | -2.465 | 
4300 |  | C=C(C)[C@@H]1CC[C@]2(COC(=O)CC3(CC(=O)O)CCCC3)CC[C@]3(C)[C@H](CC[C@@H]4[C@@]5(C)CCC(=O)C(C)(C)[C@@H]5CC[C@]43C)[C@@H]12 | -0.477 | 
500 |  | CC(C)[C@@H]1CC[C@]2(C(=O)O)CC[C@]3(C)[C@H](CC[C@@H]4[C@@]5(C)CC[C@H](OC(=O)C67CCC(C)(C(=O)O6)C7(C)C)C(C)(C)[C@@H]5CC[C@]43C)[C@@H]12 (stereo partly specified) | -0.301 | 
6590 |  | CC(C)[C@@H]1CC[C@]2(C(=O)OC(=O)OCN(C)C)CC[C@]3(C)[C@H](CC[C@@H]4[C@@]5(C)CC[C@H](O)C(C)(C)[C@@H]5CC[C@]43C)[C@@H]12 | 0 | 
100000 |  | CC(C)[C@@H]1CC[C@]2(C(=O)OCc3ccccc3)CC[C@]3(C)[C@H](CC[C@@H]4[C@@]5(C)CC[C@H](O)C(C)(C)[C@@H]5CC[C@]43C)[C@@H]12 | -0.255 | 
5.4 |  | C=C(COC(=O)CC1(CC(=O)O)CCCC1)[C@@H]1CC[C@]2(COC(=O)CC3(CC(=O)O)CCCC3)CC[C@]3(C)[C@H](CC[C@@H]4[C@@]5(C)CC[C@H](OC(=O)CC6(CC(=O)O)CCCC6)C(C)(C)[C@@H]5CC[C@]43C)[C@@H]12 | -3.076 | 
10200 |  | C=C(COC(C)=O)[C@@H]1CC[C@]2(COC(C)=O)CC[C@]3(C)[C@H](CC[C@@H]4[C@@]5(C)CC[C@H](OC(C)=O)C(C)(C)[C@@H]5CC[C@]43C)[C@@H]12 | -0.398 | 
59 |  | CC(CC(=O)O)CC(=O)OC[C@]12CC[C@@H](C(C)C)[C@@H]1[C@H]1CC[C@@H]3[C@@]4(C)CC[C@H](OC(=O)CC(C)CC(=O)O)C(C)(C)[C@@H]4CC[C@@]3(C)[C@]1(C)CC2 (stereo partly specified) | -2.512 | 
